Active and inactive are the calls of the source. The rule behind the calls is not given here.
How the values were obtained:
Escherichia coli [1] = test: Induction of Cu(2)-mediated pBR322 DNA cleavage assessed as conversion of supercoiled to relaxed open circle at 50 to 300 uM by agarose gel electrophoresis
Escherichia coli [2] = test: Induction of Cu(2)-mediated pBR322 DNA cleavage assessed as conversion of supercoiled to relaxed open circle at 300 uM by agarose gel electrophoresis in presence of potassium iodide
Escherichia coli [3] = test: Induction of Cu(2)-mediated pBR322 DNA cleavage assessed as conversion of supercoiled to relaxed open circle at 300 uM by agarose gel electrophoresis in presence of superoxide dismutase
Escherichia coli [4] = test: Induction of Cu(2)-mediated pBR322 DNA cleavage assessed as conversion of supercoiled to relaxed open circle at 300 uM by agarose gel electrophoresis in presence of catalase

Row | SMILES | Activity (Escherichia coli [1]) | Activity (Escherichia coli [2]) | Activity (Escherichia coli [3]) | Activity (Escherichia coli [4])
1 | C=C(C)CC[C@@H](C[C@@H]1C[C@]2(CC=C(C)C)C(=O)[C@@](C(=O)c3ccc(O)c(O)c3)(C(=O)C3=C2O[C@@H](C(C)(C)O)C3)C1(C)C)C(=C)C | inactive |  |  | 
2 | CC(C)=CC[C@]12C[C@H](O)C(C)(C)O[C@@H](C(C)(C)O)C[C@@](O)(C(=O)C(C(=O)C(C)C)=C1O)C2=O | Active | Active | Active | Active
3 | C=C(C)CC[C@@H](C[C@H]1C[C@@]2(CC=C(C)C)C(=O)C(CC=C(C)C)=C(O)[C@@](C(=O)c3ccc(O)c(O)c3)(C2=O)C1(C)C)C(=C)C (stereo in doubt; 2) |  | Active | Active | Active
4 | C=C(C)CC[C@@H](C[C@H]1C[C@@]2(CC=C(C)C)C(=O)C(CC=C(C)C)=C(O)[C@@](C(=O)c3ccc(O)c(O)c3)(C2=O)C1(C)C)C(=C)C (stereo in doubt; 2a) |  | Active | Active | Active

Reference: ChEMBL document CHEMBL1144704, “Phloroglucinols with prooxidant activity from Garcinia subelliptica” (J Nat Prod, 2008)
